The first experiment concerns the target T1, sterol 14-reductase (Rattus norvegicus, UniProt A0ACM8Q6X4).
T1 construct: microsome which was used as an enzyme source of sterol 14-reductase; from tissue; host or cells: liver microsomes of male Sprague-Dawley rats fed lovastatin and cholestyramine
T1 sequence (A0ACM8Q6X4 1-418): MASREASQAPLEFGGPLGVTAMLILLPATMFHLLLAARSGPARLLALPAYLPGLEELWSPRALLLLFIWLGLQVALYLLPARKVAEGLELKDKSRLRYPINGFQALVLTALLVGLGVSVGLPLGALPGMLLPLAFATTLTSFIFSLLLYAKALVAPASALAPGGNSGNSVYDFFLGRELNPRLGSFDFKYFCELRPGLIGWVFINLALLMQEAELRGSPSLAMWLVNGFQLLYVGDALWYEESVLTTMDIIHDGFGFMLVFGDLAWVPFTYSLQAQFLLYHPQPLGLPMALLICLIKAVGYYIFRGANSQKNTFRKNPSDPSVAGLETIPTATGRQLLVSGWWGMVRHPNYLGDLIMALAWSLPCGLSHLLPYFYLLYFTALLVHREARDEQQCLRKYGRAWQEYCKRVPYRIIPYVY
In words: Inhibition of sterol 14-reductase in rat liver microsomes. In kind it is biochemical. Conditions: microsomes; read-out: Enzyme Activity (relative in vitro activity for sterol 14-reductase, IC50 class).
Protocol: 20 Male Sprague-Dawley rats weighing from 150 to 250 g have been fed for 7 days with a diet containing 0.1% (w/w) Lovastatin and 5% (w/w) Cholestyramine. The animals were fasted for 12 hours before excising liver tissues and then sacrificed by decapitation at midnight. An aqueous solution containing 0.25M of sucrose was injected into the hepatic portal vein to remove all the blood within the liver, and then, the liver was excised. The liver was homogenated with two volumes of buffer solution A (0.1M potassium phosphate, 1 mM reduced glutathione, 0.5 mM EDTA, 20% (v/v) glycerol, pH 7.4) by repeating pestles over 10 times and then, centrifuged with 900×g for 5 minutes to give a supernatant. The supernatant was centrifuged with 12,000×g for 20 minutes. The supernatant obtained was ultracentrifuged with 105,000×g for 90 minutes to give a microsome which was used as an enzyme source of sterol 14-reductase. Assay for sterol 14-reductase was carried out as follows:
60 mmol of 4,4-dimethyl-5α-cholesta-7,14-dien-3β-ol and 5,6-dihydrodibenzo-[a,g]quinolizinium salts (compound no. 2) dissolved in DMSO were added to an assay mixture (total volume 1.0 ml) containing 2 mg of the microsomal protein, 2 mM of NADPH and 25 mg of glucose plus 20 units of glucose oxidase with preincubations under nitrogen at 37° C. for 4 min. unless otherwise specified to establish anaerobic condition. Buffer A (0.1M potassium phosphate buffer, pH 7.4, including 1 mM reduced glutathione, 0.5 mM EDTA, and 20% (v/v) glycerol) used for incubation had been equilibrated with nitrogen, and nitrogen was exchanged for air in all sealed reaction flasks prior to the start of incubations. Incubation of the complete mixture was carried out anaerobically in sealed flasks for 10 min at 37° C. unless otherwise indicated. Incubations were terminated by the addition of 1 ml of ethanolic KOH followed by heating under reflux for 10 min. Sterols were extracted four times with 4 ml of petroleum ether, and the solvent was evaporated to dryness under a nitrogen stream. The resulting residue was dissolved in 200-500 μl of n-hexane for quantification by GLC at high sensitive attenuation. The activity of sterol 14-reductase was determined with the amount of the substrate wherein the double bonds of 14-carbon were reduced (for the amount reduced by 1 mg of the microsome protein for 1 minute).
On to `CCc1c2[n+](cc3c(OCc4ccc(C)c([N+](=O)[O-])c4)c(OC)ccc13)CCc1cc(OC)c(OC)cc1-2` [Compound No. 6, 5,6-dihydro-2,3-dimethoxybenzo[a]-13-ethyl-10-methoxy-9-(4-methyl-3-nitro)benzyloxybenzo[g]quinolizinium chloride], for which the IC50 is less than 1 µM.

The experiment is the same for the next values; noted with them: read-out: Enzyme Activity (relative in vitro activity for sterol 14-reductase, IC50 class).
`CCc1c2[n+](cc3c(OCc4cccc(C(F)(F)F)c4)c(OC)ccc13)CCc1cc(OC)c(OC)cc1-2` [Compound No. 11, 5,6-dihydro-2,3-dimethoxybenzo[a]-13-ethyl-10-methoxy-9-(3-trifluoromethyl)benzyloxybenzo[g]quinolizinium chloride]: the IC50 is less than 1 µM. Same read-out and setting: under `CCOc1cc2c(cc1OCC)-c1c(CC)c3ccc(OC)c(OCc4ccc(Cl)nc4)c3c[n+]1CC2` [Compound No. 58, 5,6-dihydro-2,3-diethoxybenzo[a]-9-(6-chloropyridinyl-3-yl)methoxy-13-ethyl-10-methoxybenzo [g]-quinolizinium chloride] stands 10 to 100 µM; under `CCc1c2[n+](cc3c(OCc4ccc(-c5ccccc5)cc4)c(OC)ccc13)CCc1cc(OC)c(OC)cc1-2` [Compound No. 16, 5,6-dihydro-2,3-dimethoxybenzo[a]-13-ethyl-10-methoxy-9-(4-phenyl)benzyloxybenzo[g]quinolizinium chloride], less than 1 µM; under `CCc1c2[n+](cc3c(OCc4cccc(C(F)(F)F)c4)c(OC)ccc13)CCc1cc3c(cc1-2)OCO3` [Compound No. 51, 5,6-dihydro-2,3-methylenedioxybenzo[a]-13-ethyl-10-methoxy-9-(3-trifluoromethyl)benzyloxybenzo[g]quinolizinium iodide], 10 to 100 µM. The same measure, in the same setting: under `CCCCCCCCCCCCOc1c(OCC)ccc2c(CC)c3[n+](cc12)CCc1cc(OCC)c(OCC)cc1-3` [Compound No. 61, 5,6-dihydro-2,3-diethoxybenzo[a]-9-dodecoxy-10-ethoxy-13-ethylbenzo[g]quinolizinium chloride] stands less than 1 µM; under `CCOc1cc2c(cc1OCC)-c1c(CC)c3ccc(OC)c(OCc4c(F)c(F)c(C(F)(F)F)c(F)c4F)c3c[n+]1CC2` [Compound No. 57, 5,6-dihydro-2,3-diethoxybenzo[a]-9-(2,3,5,6-tetrafluoro-4-trifluoromethyl)benzyloxy-13-ethyl-10-methoxy-benzo[g]-quinolizinium chloride], less than 1 µM; under `CCCCCCCCCCCCOc1c(OC)ccc2c(CC)c3[n+](cc12)CCc1cc2c(cc1-3)OCO2` [Compound No. 45, 5,6-dihydro-2,3-methylenedioxybenzo[a]-9-dodecoxy-13-ethyl-10-methoxybenzo[g]quinolizinium iodide], 10 to 100 µM. The same measure, in the same setting: next, `CCc1c2[n+](cc3c(OCc4ccccc4I)c(OC)ccc13)CCc1cc(OC)c(OC)cc1-2` [Compound No. 43, 5,6-dihydro-2,3-dimethoxybenzo[a]-13-ethyl-9-(2-iodo)benzyloxy-10-methoxybenzo[g]quinolizinium chloride]: 10 to 100 µM.

For `CCc1c2[n+](cc3c(OCc4ccc(OCc5ccccc5)cc4)c(OC)ccc13)CCc1cc(OC)c(OC)cc1-2` [Compound No. 14, 5,6-dihydro-2,3-dimethoxybenzo[a]-9-(4-benzyloxy)-benzyloxy-13-ethyl-10-methoxybenzo[g]quinolizinium chloride], the IC50 was more than 100 µM. For `CCc1c2[n+](cc3c(OCc4cc(OC)c(OC)cc4[N+](=O)[O-])c(OC)ccc13)CCc1cc(OC)c(OC)cc1-2` [Compound No. 5, 5,6-dihydro-2,3-dimethoxybenzo[a]-9-(4,5-dimethoxy-2-nitro)benzyloxy-13-ethyl-10-methoxybenzo[g]-quinolizinium chloride], the IC50 is less than 1 µM. The same measure, in the same setting: under `CCc1c2[n+](cc3c(OCc4ccc(C(C)C)cc4)c(OC)ccc13)CCc1cc(OC)c(OC)cc1-2` [Compound No. 30, 5,6-dihydro-2,3-dimethoxybenzo[a]-13-ethyl-9-[4-(i-propyl)benzyloxy]-10-methoxybenzo[g]quinolizinium chloride] stands more than 100 µM. The same measure, in the same setting: next, `CCc1c2[n+](cc3c(OCc4c(F)c(F)c(C(F)(F)F)c(F)c4F)c(OC)ccc13)CCc1cc(O)c(O)cc1-2` [Compound No. 60, 5,6-dihydro-2,3-dihydroxybenzo[a]-13-ethyl-10-methoxy-9-(2,3,5,6-tetrafluoro-4-trifluoromethyl)benzyloxybenzo[g]quinolizinium chloride]: less than 1 µM; `CCc1c2[n+](cc3c(OCc4cc(OC)c(OC)c(OC)c4)c(OC)ccc13)CCc1cc(OC)c(OC)cc1-2` [Compound No. 37, 5,6-dihydro-2,3-dimethoxybenzo[a]-13-ethyl-10-methoxy-9-(3,4,5-trimethoxy)benzyloxybenzo[g]quinolizinium chloride]: more than 100 µM. The same measure, in the same setting: under `CCc1c2[n+](cc3c(OCc4ccc(Cl)nc4)c(OC)ccc13)CCc1cc(OC)c(OC)cc1-2` [Compound No. 17, 5,6-dihydro-2,3-dimethoxybenzo[a]-9-(6-chloropyridine-3-yl)methoxy-13-ethyl-10-methoxybenzo[g]quinoli-zinium chloride] stands less than 1 µM. As for `CCc1c2[n+](cc3c(OCc4cc([N+](=O)[O-])ccc4OC)c(OC)ccc13)CCc1cc(OC)c(OC)cc1-2` [Compound No. 7, 5,6-dihydro-2,3-dimethoxybenzo[a]-13-ethyl-10-methoxy-9-(2-methoxy-5-nitro)benzyloxybenzo[g]quinolizinium chloride], the IC50 is 10 to 100 µM.

For the compound `C=Cc1ccc(COc2c(OC)ccc3c(CC)c4[n+](cc23)CCc2cc(OC)c(OC)cc2-4)cc1` [Compound No. 8, 5,6-dihydro-2,3-dimethoxybenzo[a]-13-ethyl-10-methoxy-9-(4-vinyl)benzyloxybenzo[g]quinolizinium chloride], the half-maximal inhibitory concentration (IC50) is more than 100 µM. Still for that read-out and setting: under `CCOc1cc2c(cc1OCC)-c1c(CC)c3ccc(OCC)c(OCc4cccc(C(F)(F)F)c4)c3c[n+]1CC2` [Compound No. 63, 5,6-dihydro-2,3-diethoxybenzo[a]-10-ethoxy-13-ethyl-9-(3-trifluoromethyl)benzyloxyenzo[g]quinolizinium chloride] stands 10 to 100 µM; under `CCc1c2[n+](cc3c(OCc4c(F)c(F)c(F)c(F)c4F)c(OC)ccc13)CCc1cc3c(cc1-2)OCO3` [Compound No. 47, 5,6-dihydro-2,3-methylenedioxybenzo[a]-13-ethyl-10-methoxy-9-(2,3,4,5,6-pentafluoro)benzyloxybenzo[g]-quinolizinium iodide], less than 1 µM; under `CCc1c2[n+](cc3c(OCc4ccc(C(C)(C)C)cc4)c(OC)ccc13)CCc1cc(OC)c(OC)cc1-2` [Compound No. 69, 5,6-dihydro-2,3-dimethoxybenzo[a]-9-[4-(tert-butyl)-benzyloxy]-13-ethyl-10-methoxybenzo[g]quinolizinium bisulfate], 10 to 100 µM. Same read-out and setting: next, `CCc1c2[n+](cc3c(OCc4cc(C)ccc4C)c(OC)ccc13)CCc1cc(OC)c(OC)cc1-2` [Compound No. 15, 5,6-dihydro-2,3-dimethoxybenzo[a]-9-(2,5-dimethyl)benzyloxy-13-ethyl-10-methoxybenzo[g]quinolizinium chloride]: more than 100 µM; `CCc1c2[n+](cc3c(OCc4c(F)c(F)c(F)c(F)c4F)c(OC)ccc13)CCc1cc(O)c(O)cc1-2` [Compound No. 59, 5,6-dihydro-2,3-dihydroxybenzo[a]-13-ethyl-10-methoxy-9-(2,3,4,5,6-pentafluoro)benzyloxybenzo[g]quinolizinium chloride]: 10 to 100 µM. The same measure, in the same setting: under `CCOc1cc2c(cc1OCC)-c1c(CC)c3ccc(OC)c(OCc4c(F)c(F)c(F)c(F)c4F)c3c[n+]1CC2` [Compound No. 56, 5,6-dihydro-2,3-diethoxybenzo[a]-13-ethyl-10-methoxy-9-(2,3,4,5,6-pentafluoro)benzyloxybenzo[g]quinolizinium chloride] stands less than 1 µM; under `CCc1c2[n+](cc3c(OCc4ccc(C)cc4)c(OC)ccc13)CCc1cc(OC)c(OC)cc1-2` [Compound No. 31, 5,6-dihydro-2,3-dimethoxybenzo[a]-13-ethyl-10-methoxy-9-(4-methyl)benzyloxybenzo[g]quinolizinium chloride], more than 100 µM. In the case of `CCc1c2[n+](cc3c(OCc4cc(C)ccc4[N+](=O)[O-])c(OC)ccc13)CCc1cc(OC)c(OC)cc1-2` [Compound No. 25, 5,6-dihydro-2,3-dimethoxybenzo[a]-13-ethyl-10-methoxy-9-(5-methyl-2-nitro)benzyloxybenzo[g]quinolizinium chloride], the IC50 was more than 100 µM. The same measure, in the same setting: under `CCc1c2[n+](cc3c(OCc4ccc([N+](=O)[O-])o4)c(OC)ccc13)CCc1cc(OC)c(OC)cc1-2` [Compound No. 39, 5,6-dihydro-2,3-dimethoxybenzo[a]-13-ethyl-10-methoxy-9-(5-nitrofuran-2-yl)methoxybenzo[g]quinolizinium chloride] stands 10 to 100 µM; under `CCc1c2[n+](cc3c(OCc4ccc(-c5ccccc5)cc4)c(OC)ccc13)CCc1cc3c(cc1-2)OCO3` [Compound No. 53, 5,6-dihydro-2,3-methylenedioxybenzo[a]-13-ethyl-10-methoxy-9-(4-phenyl)benzloxybenzo[g]quinolizinium iodide], 10 to 100 µM.

As a reminder, the IC50 is the point on the concentration scale where inhibition reaches its midpoint.

For the origin of these results see patent US6028197A, “Dibenzo[a,g]quinolizinium derivatives and the salts thereof” (Hanwha Corporation, priority 1998, dated 2000).
